In article PMC12169455, “Discovery of Indole-Based PDE5 Inhibitors: Synthesis and Pharmacological Evaluation” (ACS Medicinal Chemistry Letters, 2025):
Like-named read-outs stand apart in the source and are kept apart here.

How the values were obtained:
Recombinant human PDE5 = Recombinant human PDE5 (Homo sapiens, UniProt O76074); experiment: PDE5 enzymatic assay coupled with LC/MS analysis for cGMP determination; assay type: biochemical
[1] = PAMPA using porcine brain lipids (BBB permeability); conditions: pig
[2] = tested on: MCF-7 mammary epithelial adenocarcinoma cells; experiment: MTT cytotoxicity assay; assay type: cell-based; conditions: MCF-7, MTT
Description: The cytotoxicity effect of compound 14a was investigated to validate its suitability as a lead compound for further drug development. The cancer cell line MCF-7 was used in an MTT assay assessing cell metabolic activity (see Supporting Information for materials and methods).
5 Cytotoxicity assay of compound 14a. The compound (0.1–100 μM) was dissolved in 20% DMSO in saline; ns = nonsignificant. […]
µM concentrations. […] The cells
MultiScreen® filter plate (cat. no. MAIPNTR10, Millipore). Sample solutions (300 µL, 50 µM, […]
at room temperature for 18 hours. Samples from the acceptor wells were collected and analyzed by HPLC (Nexera-i LC-2040C Plus, Shimadzu). Equilibrium solutions of compounds 5e, 14a, […]
HPLC. The assay was performed in triplicate. […]
used for the HPLC analysis. […]
apparent permeability (Papp) using the following equation:
P = C × ― ln 1 ― AUCa cm/s […]
this protocol, the donor volume (Vd) is 0.3 cm3, acceptor volume (Va) is 0.15 cm3, membrane

[3] = compound tested at 10 μM, average of at least three independent experiments, read-out: % PDE5 Inhibition ± SEM
[4] = read-out: % PDE5 Inhibition ± SEM
[5] = Papp (RSD), tested at 50 μM, 18 hours, n.d. = not detected
[6] = Papp relative to the BBB-permeable cutoff, higher than cutoff = BBB-permeable
[7] = compound concentration range 0.1 nM – 100 μM, substrate concentration 150 nM, read-out: PDE5 IC50 ± SEM
[8] = PDE5 IC50 ± SEM, compound concentration range 0.1 nM – 100 μM, substrate concentration 150 nM

SMILES | inhibition at 10 µM (Recombinant human PDE5; [3]) | IC50 (Recombinant human PDE5; [7]) | further results
Cn1cc(CNCc2ccc3c(c2)OCO3)c2cc(C#N)ccc21 [Compound 5i] | 23.6 ± 2.24% | – | –
CCCc1nn(C)c2c(=O)[nH]c(-c3cc(S(=O)(=O)N4CCN(C)CC4)ccc3OCC)nc12 [Sildenafil, sildenafil, reference compound] | – | – | inhibition at 0.01 µM (Recombinant human PDE5; [4]): 58.2 ± 2.33%
COc1ccc(NCc2cn(CCN(C)C)c3ccc(C#N)cc23)cc1Cl [Compound 5e] | 26.2 ± 3.85% | – | Papp at 18 h, 50 µM [1, 5]: 5.62 ×10⁻⁶ cm/s; Papp at 18 h, 50 µM [1, 6]: > 2 ×10⁻⁶ cm/s
Cn1cc(CNCc2ccc(Cl)c(C(F)(F)F)c2)c2cc(C#N)ccc21 [Compound 5k] | 73.4 ± 4.13% | 1770 ± 390 nM | –
Cn1cc(CNCCN2CCOCC2)c2cc(C#N)ccc21 [Compound 5j] | 10.5 ± 1.69% | – | –
COc1ccc(CNC(=O)c2cn(CCN(C)C)c3ccc(C#N)cc23)cc1Cl [Compound 14a] | – | – | IC50 (Recombinant human PDE5; PDE5 IC50, value quoted in abstract and conclusion): 16.1 nM; IC50 (Recombinant human PDE5; [8]): 16.1 ± 7 nM; increase in biological activity (PDE5) on replacing amine with amide (Recombinant human PDE5; compared with amine analogues): 2 log unit; inhibition at 0.5 µM (Recombinant human PDE5; [4]): 101 ± 4.99%; biologically safe up to (cytotoxicity assay) [2]: up to 100 μM; concentration showing a cytotoxic effect ([2]; after 72 h incubation, safe at all other concentrations tested (0.1–100 μM)): 100 µM; Papp at 18 h, 50 µM [1, 5]: 2.83 ×10⁻⁶ cm/s; Papp at 18 h, 50 µM [1, 6]: > 2 ×10⁻⁶ cm/s
CCCn1cc(CNc2ccc(OC)c(Cl)c2)c2cc(C#N)ccc21 [Compound 5b] | 94.8 ± 2.58% | 2460 ± 130 nM | –
COc1ccc(NCc2cn(Cc3ccncc3)c3ccc(C#N)cc23)cc1Cl [Compound 5g] | 54.5 ± 4.21% | – | –
COc1ccc(NCc2cn(CC3CC3)c3ccc(C#N)cc23)cc1Cl [Compound 5c] | 86.3 ± 1.97% | 1370 ± 300 nM | –
COCCn1cc(CNc2ccc(OC)c(Cl)c2)c2cc(C#N)ccc21 [Compound 5f] | 74.5 ± 1.95% | 10400 ± 150 nM | –
COc1ccc(NC(=O)c2cn(CCN(C)C)c3ccc(C#N)cc23)cc1Cl [Compound 14b] | – | – | IC50 (Recombinant human PDE5; [8]): 10600 ± 1990 nM; inhibition at 10 µM (Recombinant human PDE5; [4]): 47.5 ± 2.33%
COc1ccc(CN(C)C(=O)c2cn(CCN(C)C)c3ccc(C#N)cc23)cc1Cl.Cl [Compound 14d] | – | – | IC50 (Recombinant human PDE5; [8]): 4900 ± 680 nM; reduction of the enzymatic activity (PDE5) compared to 14a (Recombinant human PDE5; amide hydrogen replaced by methyl): 2 log unit; inhibition at 10 µM (Recombinant human PDE5; [4]): 52 ± 6.68%
COc1ccc(Nc2cn(S(=O)(=O)c3ccc(C)cc3)c3ccc(C#N)cc23)cc1Cl [Compound 10] | 73.4 ± 7.5% | – | –
COc1ccc(CNCc2cn(C)c3ccc(C#N)cc23)cc1Cl [Compound 5h] | 72.2 ± 1.25% | 1250 ± 150 nM | –
COc1ccc(CNC(=O)c2cn(CCN(C)C)c3ccccc23)cc1Cl [Compound 14c] | – | – | IC50 (Recombinant human PDE5; [8]): 3650 ± 970 nM; PDE5 inhibition effect compared to compound 5e (Recombinant human PDE5; at 10 μM): about double; inhibition at 10 µM (Recombinant human PDE5; [4]): 66.1 ± 2.34%
COc1ccc(NCc2cn(CC(C)C)c3ccc(C#N)cc23)cc1Cl [Compound 5d] | 99.2 ± 2.72% | 1720 ± 720 nM | –
COc1ccc(NCc2cn(C)c3ccc(C#N)cc23)cc1Cl [Compound 5a] | 77 ± 4.87% | 2650 ± 480 nM | –
